# Test results published in patent US20260083789A1, “FORMULATION FOR STIMULATING HAIR GROWTH AND IMPROVING QUALITY AND METHOD OF PREPARATION OF THE SAME” (ARJUNA NATURAL PRIVATE LIMITED, priority 2022, published 2026).
# Columns and labels:
# [1] = test system: Human dermal fibroblasts (HDFa) cells; test: MTT assay, cell viability / proliferation; format: cell-based; conditions: HDFs
# Experimental: Human dermal fibroblasts (HDFa) cells were maintained in DMEM high glucose media (Himedia) with 10% FBS and 40 units/ml of penicillin & 40 μg/mL of streptomycin (Thermo Fisher) in 37° C. humidified chamber with 5% CO2. Cells were passaged after every 2-3 days using trypsin-EDTA.
# Cells were trypsinized, centrifuged and resuspended in culture medium. Cells and then counted by trypan blue method using haemocytometer and plated at 5000 cells per 50 μl into wells of a 96 well microtiter plate. The cells were then incubated overnight under conditions appropriate for the cell line for adherence. […] 10 μl MTT reagent was then added to each well, after respective time period followed by incubation for 4 hours. After 4 hours, when the purple precipitate was clearly visible under the microscope, supernatant was removed carefully by pipette and 100 μl of solubilization solution (DMSO) was added to all wells. The plate was shaken softly for 20 minutes in the dark at room temperature. Then, the absorbance was taken of each well, including the blanks, at 570 nm with reference wavelength at 630 nm in a microtiter plate reader. The average values were determined from triplicate readings and subtracted the average value for the blank.
# HDFs = test: In vitro cell based scratch assay (wound healing); parameters: species or system human; conditions: negative control 89.798 %
# Experimental: In vitro cell based scratch assay is one of the most apt and economic procedures for preliminary examination of wound healing potential of any medicinal extract. […] Cell migration was monitored at 0 hour, 24 hours and 48 hours and wound closure distance was calculated by Image J software.
structure (smiles),measurement,setting,value
"Nc1cc(N2CCCCC2)nc(N)[n+]1[O-] [Minoxidil, 2,4-diamino-6 piperidino-pyrimidine-3-oxide]",time at which cell proliferation peaked,[1],72 h
same,time to show efficacy / increase the rate of cell proliferation,[1],48 h
same,cell proliferation in relation to concentration,[1]; in contrast to the extract,increased cell proliferation at lower concentrations
same,closure of the gap created by the scratch,HDFs,89.358%
